How the values were obtained:
PfENT1Y190A = molecular target: T1, PfENT1Y190A (Plasmodium falciparum, UniProt Q8IDM6, Y190A); experiment: ITC binding to PfENT1Y190A; details: compared with wild type
T1 construct: 10xHis (N); made in house; host or cells: Sf9 insect cells (baculovirus)
T1 sequence (Q8IDM6 1-422 Y190A): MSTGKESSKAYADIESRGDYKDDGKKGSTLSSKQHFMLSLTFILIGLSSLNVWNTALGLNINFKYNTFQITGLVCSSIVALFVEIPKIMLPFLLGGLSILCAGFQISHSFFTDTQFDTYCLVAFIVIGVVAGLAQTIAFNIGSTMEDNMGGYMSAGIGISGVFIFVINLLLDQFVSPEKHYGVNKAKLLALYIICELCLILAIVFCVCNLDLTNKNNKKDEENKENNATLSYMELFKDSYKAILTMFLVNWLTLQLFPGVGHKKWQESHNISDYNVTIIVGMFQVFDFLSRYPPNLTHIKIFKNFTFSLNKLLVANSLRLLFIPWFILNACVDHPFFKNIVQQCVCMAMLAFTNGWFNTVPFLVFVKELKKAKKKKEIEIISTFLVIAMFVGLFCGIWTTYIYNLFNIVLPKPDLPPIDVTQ
Description: (§1) For the in vitro binding assay, Sf9 cells were solubilized in lysis buffer containing 2% (w/v) n-dodecyl-β-D-maltopyranoside (DDM, Anatrace) and protease inhibitor cocktail (0.8 μM aprotinin, 2 μM pepstatin, and 5 μg/ml leupeptin) at 4 °C for 2 h. The soluble supernatant was collected via centrifugation and incubated with Ni-NTA resin (QIAGEN) at 4 °C for 1 h. The resin was washed and eluted using lysis buffer containing 0.05% (w/v) DDM and 30 mM/300 mM imidazole. The protein was further purified by size-exclusion chromatography (Superdex 200 Increase 10/300; GE Healthcare) in buffer containing 25 mM MES (pH 6.0), 150 mM NaCl, and 0.05% (w/v) DDM. The peak fractions were pooled and concentrated to 10~50 μM for the nucleoside-binding assay.
(§2) The binding affinity between wild-type and mutant PfENT1 with nucleosides and GSK4 was measured using a Micro-Cal ITC200 (Malvern). All proteins were prepared in 25 mM MES (pH 6.0), 150 mM NaCl, and 0.05% (w/v) DDM. Nucleosides (5~10 mM) and GSK4 (100-200 μM) dissolved in the same buffer were titrated against 20–50 μM PfENT1 proteins at 25 °C. PEAQ-ITC analysis software (MicroCal) was employed to analyze the data. All titrations were repeated three times.

PfENT1 mutant Q135A = molecular target: T2, PfENT1 mutant Q135A (Plasmodium falciparum, UniProt Q8IDM6, Q135A); experiment: ITC binding to PfENT1 mutant Q135A; details: Fig. 3c
T2 construct: 10xHis (N); made in house; host or cells: Sf9 insect cells (baculovirus)
T2 sequence (Q8IDM6 whole entry Q135A): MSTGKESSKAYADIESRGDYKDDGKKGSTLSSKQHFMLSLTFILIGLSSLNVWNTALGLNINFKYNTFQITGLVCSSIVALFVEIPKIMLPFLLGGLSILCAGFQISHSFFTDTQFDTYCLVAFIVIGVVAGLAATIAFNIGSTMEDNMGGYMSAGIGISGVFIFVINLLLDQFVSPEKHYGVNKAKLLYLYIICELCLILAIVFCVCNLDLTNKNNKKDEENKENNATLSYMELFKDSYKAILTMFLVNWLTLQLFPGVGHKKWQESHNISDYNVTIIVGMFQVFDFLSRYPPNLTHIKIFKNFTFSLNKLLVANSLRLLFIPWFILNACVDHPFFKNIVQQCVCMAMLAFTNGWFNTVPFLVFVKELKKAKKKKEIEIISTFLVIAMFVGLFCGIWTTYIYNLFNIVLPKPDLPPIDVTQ
Description: as §1, §2

PfENT1 W53A = molecular target: T3, PfENT1 W53A (Plasmodium falciparum, UniProt Q8IDM6, W53A); experiment: Inosine uptake assay, yeast expressing PfENT1 W53A; format: cell-based; details: Fig. 3d, construct W53A
T3 construct: expressed in transfected cells; host or cells: S. cerevisiae BY4741, FUI1 deleted, PfENT1 mutant knock-in under the TEF1 promoter
T3 sequence (Q8IDM6 whole entry W53A): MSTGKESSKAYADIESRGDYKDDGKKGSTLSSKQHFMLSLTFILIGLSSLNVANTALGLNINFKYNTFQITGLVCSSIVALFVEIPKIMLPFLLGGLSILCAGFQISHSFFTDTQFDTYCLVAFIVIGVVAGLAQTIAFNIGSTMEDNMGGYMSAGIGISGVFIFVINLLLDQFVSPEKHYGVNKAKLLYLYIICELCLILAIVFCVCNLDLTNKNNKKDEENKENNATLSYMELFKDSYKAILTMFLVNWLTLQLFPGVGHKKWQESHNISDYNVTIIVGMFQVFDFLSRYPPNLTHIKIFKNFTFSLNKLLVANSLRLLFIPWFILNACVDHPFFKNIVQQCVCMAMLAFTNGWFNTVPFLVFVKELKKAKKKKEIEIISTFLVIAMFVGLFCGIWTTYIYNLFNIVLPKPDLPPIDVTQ
Excerpt: (§3) Codon-optimized PfENT1 (for expression in yeast) was synthesized by Sangon Biotech. The carboxyl terminus of PfENT1 was HA-tagged through PCR. The TEF1p promoter and PGK1t terminator were amplified from BY4741 genomic DNA. Overlap PCR was applied to generate the gene overexpression cassette of PfENT1 (TEF1p promoter-PfENT1-PGK1t terminator). The two 600-bp homologous arms corresponding to the upstream and downstream regions of the FUI1 gene were amplified from BY4741 genomic DNA. The gene cassette of the ‘TEF1p promoter-PfENT1-PGK1t terminator’ together with the two homologous arms was cloned into the PUC19 plasmid through Gibson assembly, generating the final plasmid PUC19: PfENT1. PfENT1 mutations were generated using point mutation and verified by Sanger sequencing. The spacer targeting the FUI1 gene (5ʹ-[…]-3ʹ) was cloned into the pCas-BsaI plasmid to generate the pCas-FUI1 plasmid as described previously. […]
(§4) Cells were grown overnight in YPD medium to mid-log phase and harvested by centrifugation at 3000 × g for 5 min. […] After washing by vacuum filtration with 2 ml ice-cold 2% glucose, the radioactivity retained on the filter was incubated with 1 mL of ULTIMA GOLD scintillation fluid (Perkin Elmer, 77-15311). Counts were measured using a liquid scintillation analyzer (Perkin Elmer, Tri-Carb 5110TR). […]

PfENT1 Q135A = molecular target: T4, PfENT1 Q135A (Plasmodium falciparum, UniProt Q8IDM6, Q135A); experiment: Inosine uptake assay, yeast expressing PfENT1 Q135A; format: cell-based; details: Fig. 3d, construct Q135A
T4 construct: expressed in transfected cells; host or cells: S. cerevisiae BY4741, FUI1 deleted, PfENT1 mutant knock-in under the TEF1 promoter
T4 sequence (Q8IDM6 whole entry Q135A): as the sequence (Q8IDM6 whole entry Q135A) above
Excerpt: as §3, §4

PfENT1 D287A = molecular target: T5, PfENT1 D287A (Plasmodium falciparum, UniProt Q8IDM6, D287A); experiment: Inosine uptake assay, yeast expressing PfENT1 D287A; format: cell-based; details: Fig. 3d, construct D287A
T5 construct: expressed in transfected cells; host or cells: S. cerevisiae BY4741, FUI1 deleted, PfENT1 mutant knock-in under the TEF1 promoter
T5 sequence (Q8IDM6 whole entry D287A): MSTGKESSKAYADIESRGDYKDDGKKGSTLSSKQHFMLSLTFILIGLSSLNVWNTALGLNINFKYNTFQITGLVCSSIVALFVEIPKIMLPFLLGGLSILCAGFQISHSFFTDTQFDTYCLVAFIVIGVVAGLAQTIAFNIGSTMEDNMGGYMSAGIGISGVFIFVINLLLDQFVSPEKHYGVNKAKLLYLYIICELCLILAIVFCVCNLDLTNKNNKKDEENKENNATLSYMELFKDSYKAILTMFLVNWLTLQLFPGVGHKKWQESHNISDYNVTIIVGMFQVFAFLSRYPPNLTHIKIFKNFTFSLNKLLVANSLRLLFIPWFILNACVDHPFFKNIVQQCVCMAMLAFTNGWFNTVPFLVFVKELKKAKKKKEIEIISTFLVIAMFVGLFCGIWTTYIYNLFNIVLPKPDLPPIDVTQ
Excerpt: as §3, §4

OC[C@H]1O[C@@H](n2cnc3c(O)ncnc32)[C@H](O)[C@@H]1O [Inosine, inosine]
inosine-binding affinity (PfENT1Y190A): similar | binding affinity (Kd) (PfENT1 mutant Q135A): complete abolishment | Uptake of [3H]-inosine (Percentage of PfENT1 WT) (PfENT1 W53A): abolished the transport activity | Uptake of [3H]-inosine (Percentage of PfENT1 WT) (PfENT1 Q135A): abolished the transport activity | Uptake of [3H]-inosine (Percentage of PfENT1 WT) (PfENT1 D287A): abolished the transport activity
